Laboratory results taken from US20020054941A1, “Methods and compositions to enhance tenderness and value of meat” (The Board of Regents of the University of Nebraska, priority 2000, published 2002).
“Also recorded” adds a separate entry of the source. Marks after values point to notes of the source that are not given here.

How the values were obtained:
[1] = system: semimembranosus beef muscles; experiment: Glycogen content, pre-rigor injection of whole muscle
Experimental: (§1) Experiment were conducted to test the effects of pre-rigor injection of several compounds. Effects of these compounds on pH, color, tenderness and other related traits of low-value beef cuts were investigated. Ten steers (22 to 24 mo of age, 515 to 676 kg live weight) were slaughtered according to current industry procedures. Pre-rigor semimembranosus (from the round), triceps brachii and supraspinatus muscles (from the chuck) were excised, after evisceration (approximately 1 hour post-mortem), from both sides of the carcass. Muscle sections were randomly assigned to the treatments: sodium citrate (NaC; 200 mM), sodium fluoride (NaF; 200 mM), sodium acetate (NaA; 200 mM), and calcium chloride (CaCl2; 300 mM). The control samples remained on the carcass at 2° C. for 24 hours to simulate commercial conditions. Following a cooling, control muscles were removed from each carcass (4 replicates), vacuum packaged and transferred to the holding cooler with the other cuts at 2° C. Calcium chloride treatment was included to be compared with the other treatments.
(§2) At 2 hours post-mortem, each muscle was injected with a volume equal to 8% of the muscle weight using a four-needle hand injector. The temperature of solutions were 4° C. Each muscle was individually treated (2% of solution was added to give a total of 10% of muscle weight) and tumbled in a 75-pound capacity tumbler (Röschermatic, Oshabrück, Germany) for 30 min to insure uniform distribution of the solution.
Samples of each muscle (approximately 100 g) were taken at 0 hour (before injection), 24, and 72 hours after injection for determination of pH, oxidation-reduction potential, glycogen content, R-values, NAD, and NADH. The samples were then immediately frozen in liquid nitrogen and stored at −80° C. until they were powdered and analyzed. Fresh muscle samples (approximately 20 g) were taken at 72 hours after injection and assayed immediately for water holding capacity and sarcomere length.
Glycogen extraction was performed in duplicate with 3 g of frozen-powdered muscle sample, which was homogenized with 0.6 N perchloric acid. Amylo-α-1,4-α-1,6- glucosidase from Aspergillus niger (No. A3514. Sigma Chemical, St. Louis, Mo.) was used for the breakdown of the glycogen molecules to free glucose following the method described by Roehrig and Allred (1974). Homogenate was incubated for 2 hours at 37° C., then 100 μL of 3 N perchloric acid was added to precipitate the proteins. After centrifugation, the supernatant was stored at 0-4° C., until analyzed, which was within 2 weeks.
The assay for glucose was run as described by Dalrymple and Hamm (1973) and Roehrig and Allred (1974), using glucose-6-phosphate dehydrogenase (No. G8878. Sigma Chemical, St. Louis, Mo.) and hexokinase (No. H5500. Sigma Chemical, St. Louis, Mo.). Briefly, the method involves an exoglucosidase, Amylogucosidase, from Aspergillus niger which hydrolyses the -α-D-(1-4) and -α-D-(1-6)-linkages of glycogen. The glucose formed is specifically determined with hexokinase and glucose-6-phosphate dehydrogenase. The glucose liberated after hydrolysis of glycogen is proportional to the increase of absorbance measured at 340 nm. Fifty μL of sample was incubated with 1 mL ATP, NADP, Glucose-6-phosphate dehydrogenase buffer and 5 μL hexokinase at 37° C. for 15 min. Absorbance was measured at 340 nm wavelength, light path=1 cm. The muscle glycogen content was calculated with the following formula: Glycogen (μmol glucose/g wet muscle weight)=111.882×absorbance. 111.882 is the dilution factor.

[2] = system: semimembranosus beef muscles; experiment: Warner-Bratzler shear force, pre-rigor injection of whole muscle; details: 200 mM, calcium chloride 300 mM
Experimental: as §1, §2
(§3) Tenderness of samples was evaluated by measuring Warner-Bratzler shear force. Steaks (2.54-cm thick) from the middle of each muscle were cut and frozen at 3, 7 and 14 days postmortem. Frozen steaks (2.54 cm thick) were thawed at 4° C. for 24 hours and cooked on Farberware Open Hearth Broilers (Model 350A Walter Kidde, Bronx, N.Y.) to an internal temperature of 40° C., turned, and cooked to a final internal temperature of 70° C. (AMSA, 1995). Temperature was monitored using an OMEGA thermocouple thermometer type T (Omega Engineering, Inc., Stamford, Conn.) inserted into the geometric center of a steak. The cooked steaks were chilled 2 hours at 2° C., and then 8 cores (1.27-cm diameter) were removed parallel to the muscle fiber orientation. Cores were sheared once each on an Instron Universal Testing Machine model 55R1123 (Instron, Canton, Mass.) with a Warner-Braztler attachment. The Instron was set up with a 500 kg load cell, full scale load=1 (0-10 kg), and crosshead speed=250 mm/mim.

[3] = system: supraspinatus beef muscles; experiment: as above; details: 200 mM
Experimental: as §1, §2, §3

[4] = system: triceps brachii beef muscles; experiment: as above; details: 200 mM, calcium chloride 300 mM; for Shear force, 3 d: 3 d postmortem; for Shear force, 7 d: 7 d postmortem
Experimental: as §1, §2, §3

[5] = system: Infraspinatus (ISP) steaks; experiment: Consumer panel palatability ratings of steaks; design: species or system steers; details: for Flavor / Tenderness: ISP, 9-point hedonic scale
Experimental: (§4) Thoracic limbs from 14 steers were chilled on the carcass (controls) or removed within 2 hours post-mortem and pumped to 10% of muscle weight with water, 200 mM or 400 mM sodium citrate solutions. The injections were performed at various sites along the muscle. The control remained on the carcass. Muscle pH and temperature were measured immediately prior to pumping. Experimental and control muscles were chilled at 2° C. for 24 hours. Steaks (2.54 cm thick) were removed after 24 hours from the Infraspinatus, Supraspinatus and Triceps brachii muscles and were either frozen immediately or aged for another 6 days and then evaluated. A consumer panel evaluated palatability juiciness, tenderness, connective tissue amount, and flavor desirability) on Infraspinatus and Triceps brachii steaks using 9-point hedonic scales (1 being very undesirable and 9 being very desirable) for each trait. Warner-Bratzler shear force values were determined on 1.27 cm-diameter cores from steaks that were broiled to an internal temperature of 70° C.

[6] = system: Triceps brachii (TBR) steaks; experiment: Consumer panel palatability ratings of steaks; design: species or system steers; details: for Flavor / Tenderness: TBR, 9-point hedonic scale
Experimental: as §4

[7] = 400 mM, Infraspinatus, day 1 and day 7, P<0.10, data not shown
[8] = 400 mM, Triceps brachii, day 1 and day 7, P<0.10, data not shown

Structure (SMILES): O=C([O-])CC(O)(CC(=O)[O-])C(=O)[O-].[Na+].[Na+].[Na+] [Sodium citrate, sodium citrate]
- Glycogen, 0 h ([1]; 0 h (before injection)): 65.12 μmol/g muscle
- Glycogen, 24 h ([1]; 24 h, 200 mM, calcium chloride 300 mM): 52.83^a μmol/g muscle
- Glycogen, 72 h ([1]; 72 h, 200 mM, calcium chloride 300 mM): 45.65^a μmol/g muscle
- Shear force, 3 d ([2]; 3 d postmortem): 5.14 kg
- Shear force, 7 d ([2]; 7 d postmortem): 4.41 kg
- Shear force, 14 d ([2]; 14 d postmortem): 3.96 kg
- Shear force, 3 d ([3]; 3 d postmortem, calcium chloride 300 mM): 5.06^c kg
- Shear force, 7 d ([3]; 7 d postmortem, calcium chloride 300 mM): 4.89^b kg
- reduced shear force compared with controls ([3]; supraspinatus, 3 days post-mortem, CaCl2 300 mM): 2.22 kg
- Shear force, 3 d [4]: 4.54^c kg
- Shear force, 3 d ([4]; listed as NaC): most tender meat; also recorded: more tender
- Shear force, 7 d [4]: 4.20^c kg
- Shear force, 7 d ([4]; listed as NaC): lower shear force values than CaCl2
- Shear force, 14 d ([4]; 14 d postmortem): 3.69 kg
- Flavor ([5]; 200 mM, d1): 5.33^a,b
- Tenderness ([5]; 200 mM, d1): 5.36^a,b
- Flavor ([5]; 200 mM, d7): 5.35^a
- Tenderness ([5]; 200 mM, d7): 5.68^a
- Flavor ([5]; 400 mM, d1): 5.49^a*
- Tenderness ([5]; 400 mM, d1): 5.67^a
- Flavor ([5]; 400 mM, d7): 5.41^a
- Tenderness ([5]; 400 mM, d7): 5.90^a
- Connective tissue amount rating vs controls [5, 7]: more desirable
- Juiciness rating vs controls [5, 7]: more desirable
- Flavor ([6]; 200 mM, d1): 5.23^a
- Tenderness ([6]; 200 mM, d1): 4.81^b
- Flavor ([6]; 200 mM, d7): 4.87^a
- Flavor ([6]; 400 mM, d1): 5.30^a*
- Tenderness ([6]; 400 mM, d1): 5.25^a
- Flavor ([6]; 400 mM, d7): 5.18^a
- Tenderness ([6]; 400 mM, d7): 5.48^a
- Connective tissue amount rating vs controls [6, 8]: more desirable
- Juiciness rating vs controls [6, 8]: more desirable
